Measurements reported in PubChem BioAssay (NCI).
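Protocol summary: plate cells (96-well), add compound at 5 concentrations, incubate 48 h, interpolate endpoints linearly. TGI denotes the concentration required for complete inhibition of growth.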

Tests used:
Test in all cases: NCI tumour cell line growth inhibition, 48 h
RXF-631 renal = system: RXF-631 renal
SNB-75 CNS = system: SNB-75 CNS
CAKI-1 renal = system: CAKI-1 renal
HCT-116 colon = system: HCT-116 colon
A498 renal = system: A498 renal
KM20L2 colon = system: KM20L2 colon
NCI-H23 lung = system: NCI-H23 lung
HOP-18 NSCLC = system: HOP-18 NSCLC
HOP-62 NSCLC = system: HOP-62 NSCLC
SK-OV-3 ovarian = system: SK-OV-3 ovarian
SNB-19 CNS = system: SNB-19 CNS
UACC-62 melanoma = system: UACC-62 melanoma
RPMI-8226 leukemia = system: RPMI-8226 leukemia
DMS 114 small cell lung = system: DMS 114 small cell lung
SN12C renal = system: SN12C renal
786-0 renal = system: 786-0 renal
KM12 colon = system: KM12 colon
HCT-15 colon = system: HCT-15 colon
SK-MEL-5 melanoma = system: SK-MEL-5 melanoma
SR leukemia = system: SR leukemia
RXF 393 renal = system: RXF 393 renal
DMS 273 small cell lung = system: DMS 273 small cell lung
DLD-1 colon = system: DLD-1 colon
HCC-2998 colon = system: HCC-2998 colon
MALME-3M melanoma = system: MALME-3M melanoma
HL-60(TB) leukemia = system: HL-60(TB) leukemia
HOP-92 NSCLC = system: HOP-92 NSCLC
TK-10 renal = system: TK-10 renal
K-562 leukemia = system: K-562 leukemia
OVCAR-5 ovarian = system: OVCAR-5 ovarian
U251 CNS = system: U251 CNS
NCI-H226 lung = system: NCI-H226 lung
OVCAR-4 ovarian = system: OVCAR-4 ovarian
SNB-78 CNS = system: SNB-78 CNS
IGROV1 ovarian = system: IGROV1 ovarian
EKVX NSCLC = system: EKVX NSCLC
LXFL 529 NSCLC = system: LXFL 529 NSCLC
SK-MEL-2 melanoma = system: SK-MEL-2 melanoma
ACHN renal = system: ACHN renal
SF-295 CNS = system: SF-295 CNS
MOLT-4 leukemia = system: MOLT-4 leukemia
UO-31 renal = system: UO-31 renal
SF-268 CNS = system: SF-268 CNS
SF-539 CNS = system: SF-539 CNS
NCI-H522 lung = system: NCI-H522 lung
A549 NSCLC = system: A549 NSCLC
XF 498 CNS = system: XF 498 CNS
M14 melanoma = system: M14 melanoma
OVCAR-8 ovarian = system: OVCAR-8 ovarian
CCRF-CEM leukemia = system: CCRF-CEM leukemia
HT29 colon = system: HT29 colon
UACC-257 melanoma = system: UACC-257 melanoma
NCI-H460 lung = system: NCI-H460 lung
SW-620 colon = system: SW-620 colon
SK-MEL-28 melanoma = system: SK-MEL-28 melanoma
M19-MEL melanoma = system: M19-MEL melanoma
LOX IMVI melanoma = system: LOX IMVI melanoma
COLO 205 colon = system: COLO 205 colon
OVCAR-3 ovarian = system: OVCAR-3 ovarian

## Cc1ns/c(=N\C(=S)N(C)C)n1C
RXF-631 renal
  TGI: > 100 µM
SNB-75 CNS
  TGI: > 100 µM
CAKI-1 renal
  TGI: > 100 µM
HCT-116 colon
  TGI: > 100 µM
A498 renal
  TGI: > 100 µM
KM20L2 colon
  TGI: > 100 µM
NCI-H23 lung
  TGI: > 100 µM
HOP-18 NSCLC
  TGI: > 100 µM
HOP-62 NSCLC
  TGI: > 100 µM
SK-OV-3 ovarian
  TGI: > 100 µM
SNB-19 CNS
  TGI: > 100 µM
UACC-62 melanoma
  TGI: > 100 µM
RPMI-8226 leukemia
  TGI: > 100 µM
DMS 114 small cell lung
  TGI: > 100 µM
SN12C renal
  TGI: > 100 µM
786-0 renal
  TGI: > 100 µM
KM12 colon
  TGI: > 100 µM
HCT-15 colon
  TGI: > 100 µM
SK-MEL-5 melanoma
  TGI: > 100 µM
SR leukemia
  TGI: > 100 µM
RXF 393 renal
  TGI: > 100 µM
DMS 273 small cell lung
  TGI: > 100 µM
DLD-1 colon
  TGI: > 100 µM
HCC-2998 colon
  TGI: > 100 µM
MALME-3M melanoma
  TGI: > 100 µM
HL-60(TB) leukemia
  TGI: > 100 µM
HOP-92 NSCLC
  TGI: > 100 µM
TK-10 renal
  TGI: > 100 µM
K-562 leukemia
  TGI: > 100 µM
OVCAR-5 ovarian
  TGI: > 100 µM
U251 CNS
  TGI: > 100 µM
NCI-H226 lung
  TGI: > 100 µM
OVCAR-4 ovarian
  TGI: > 100 µM
SNB-78 CNS
  TGI: > 100 µM
IGROV1 ovarian
  TGI: > 100 µM
EKVX NSCLC
  TGI: > 100 µM
LXFL 529 NSCLC
  TGI: > 100 µM
SK-MEL-2 melanoma
  TGI: > 100 µM
ACHN renal
  TGI: > 100 µM
SF-295 CNS
  TGI: > 100 µM
MOLT-4 leukemia
  TGI: > 100 µM
UO-31 renal
  TGI: > 100 µM
SF-268 CNS
  TGI: > 100 µM
SF-539 CNS
  TGI: > 100 µM
NCI-H522 lung
  TGI: > 100 µM
A549 NSCLC
  TGI: > 100 µM
XF 498 CNS
  TGI: > 100 µM
M14 melanoma
  TGI: > 100 µM
OVCAR-8 ovarian
  TGI: > 100 µM
CCRF-CEM leukemia
  TGI: > 100 µM
HT29 colon
  TGI: > 100 µM
UACC-257 melanoma
  TGI: > 100 µM
NCI-H460 lung
  TGI: > 100 µM
SW-620 colon
  TGI: > 100 µM
SK-MEL-28 melanoma
  TGI: > 100 µM

## N#CC(=C=[N-])[n+]1ccc(Cl)cc1
RXF-631 renal
  TGI: 52.5 µM
SNB-75 CNS
  TGI: 32.2 µM
CAKI-1 renal
  TGI: 10.9 µM
HCT-116 colon
  TGI: 31.2 µM
A498 renal
  TGI: 86.6 µM
KM20L2 colon
  TGI: 65.4 µM
NCI-H23 lung
  TGI: 29.9 µM
HOP-62 NSCLC
  TGI: 83 µM
SK-OV-3 ovarian
  TGI: > 100 µM
SNB-19 CNS
  TGI: 94.5 µM
UACC-62 melanoma
  TGI: 29.9 µM
RPMI-8226 leukemia
  TGI: 60.7 µM
DMS 114 small cell lung
  TGI: 26.9 µM
SN12C renal
  TGI: 28.3 µM
M19-MEL melanoma
  TGI: 27.8 µM
786-0 renal
  TGI: 37.2 µM
KM12 colon
  TGI: 59.7 µM
HCT-15 colon
  TGI: 28.6 µM
SK-MEL-5 melanoma
  TGI: 29.7 µM
SR leukemia
  TGI: 62.2 µM
RXF 393 renal
  TGI: 31.5 µM
DMS 273 small cell lung
  TGI: 46.2 µM
DLD-1 colon
  TGI: 24.4 µM
MALME-3M melanoma
  TGI: 30.6 µM
HL-60(TB) leukemia
  TGI: 20.4 µM
HOP-92 NSCLC
  TGI: 29.8 µM
TK-10 renal
  TGI: 45.8 µM
K-562 leukemia
  TGI: 11.3 µM
OVCAR-5 ovarian
  TGI: 32.7 µM
U251 CNS
  TGI: 29.7 µM
NCI-H226 lung
  TGI: 66.7 µM
OVCAR-4 ovarian
  TGI: 39.8 µM
SNB-78 CNS
  TGI: 42.4 µM
IGROV1 ovarian
  TGI: 36.4 µM
EKVX NSCLC
  TGI: 33.8 µM
LXFL 529 NSCLC
  TGI: 27.6 µM
SF-295 CNS
  TGI: 38.9 µM
MOLT-4 leukemia
  TGI: > 100 µM
UO-31 renal
  TGI: 59.9 µM
SF-268 CNS
  TGI: 28.2 µM
SF-539 CNS
  TGI: 43.2 µM
NCI-H522 lung
  TGI: 9.55 µM
A549 NSCLC
  TGI: > 100 µM
LOX IMVI melanoma
  TGI: 26.2 µM
COLO 205 colon
  TGI: 32.9 µM
XF 498 CNS
  TGI: 33.4 µM
M14 melanoma
  TGI: 31.1 µM
OVCAR-8 ovarian
  TGI: 37.9 µM
OVCAR-3 ovarian
  TGI: 31.5 µM
CCRF-CEM leukemia
  TGI: 56 µM
HT29 colon
  TGI: 33.8 µM
UACC-257 melanoma
  TGI: 29.5 µM
NCI-H460 lung
  TGI: 55.5 µM
SW-620 colon
  TGI: 23.4 µM
